In PubChem BioAssay (NCI):
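Compound exposure: 48 hours, 5 concentrations, 96-well plates. GI50 = concentration required for 50% inhibition of growth. At the TGI there is no net growth.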

What was measured:
Assay in all cases: growth of human tumour cells (NCI), 48 h
SNB-19 CNS = system: SNB-19 CNS
RPMI-8226 leukemia = system: RPMI-8226 leukemia
K-562 leukemia = system: K-562 leukemia
MOLT-4 leukemia = system: MOLT-4 leukemia
SR leukemia = system: SR leukemia
SK-MEL-5 melanoma = system: SK-MEL-5 melanoma
HOP-92 NSCLC = system: HOP-92 NSCLC
HCT-116 colon = system: HCT-116 colon
NCI-H522 lung = system: NCI-H522 lung
HCC-2998 colon = system: HCC-2998 colon
OVCAR-5 ovarian = system: OVCAR-5 ovarian
EKVX NSCLC = system: EKVX NSCLC
M19-MEL melanoma = system: M19-MEL melanoma
SK-MEL-28 melanoma = system: SK-MEL-28 melanoma
U251 CNS = system: U251 CNS
SK-MEL-2 melanoma = system: SK-MEL-2 melanoma
M14 melanoma = system: M14 melanoma
NCI-H460 lung = system: NCI-H460 lung
TK-10 renal = system: TK-10 renal
KM12 colon = system: KM12 colon
KM20L2 colon = system: KM20L2 colon
ACHN renal = system: ACHN renal
SNB-75 CNS = system: SNB-75 CNS
DMS 273 small cell lung = system: DMS 273 small cell lung
SF-539 CNS = system: SF-539 CNS
SN12C renal = system: SN12C renal
UACC-62 melanoma = system: UACC-62 melanoma
786-0 renal = system: 786-0 renal
LXFL 529 NSCLC = system: LXFL 529 NSCLC
SK-OV-3 ovarian = system: SK-OV-3 ovarian
DLD-1 colon = system: DLD-1 colon
SF-295 CNS = system: SF-295 CNS
CAKI-1 renal = system: CAKI-1 renal
CCRF-CEM leukemia = system: CCRF-CEM leukemia
SW-620 colon = system: SW-620 colon
UO-31 renal = system: UO-31 renal
HL-60(TB) leukemia = system: HL-60(TB) leukemia
OVCAR-8 ovarian = system: OVCAR-8 ovarian
HCT-15 colon = system: HCT-15 colon
OVCAR-4 ovarian = system: OVCAR-4 ovarian
IGROV1 ovarian = system: IGROV1 ovarian
SF-268 CNS = system: SF-268 CNS
SNB-78 CNS = system: SNB-78 CNS
HT29 colon = system: HT29 colon
XF 498 CNS = system: XF 498 CNS
COLO 205 colon = system: COLO 205 colon
A549 NSCLC = system: A549 NSCLC
HOP-62 NSCLC = system: HOP-62 NSCLC
LOX IMVI melanoma = system: LOX IMVI melanoma
NCI-H23 lung = system: NCI-H23 lung
NCI-H226 lung = system: NCI-H226 lung
DMS 114 small cell lung = system: DMS 114 small cell lung
A498 renal = system: A498 renal
UACC-257 melanoma = system: UACC-257 melanoma
OVCAR-3 ovarian = system: OVCAR-3 ovarian
RXF 393 renal = system: RXF 393 renal
MALME-3M melanoma = system: MALME-3M melanoma

## CC1=Nn2c(nnc2-c2ccccc2Cl)NC(C)(C)C1
SNB-19 CNS
  TGI: > 100 µM
RPMI-8226 leukemia
  TGI: 54.3 µM
K-562 leukemia
  TGI: > 100 µM
MOLT-4 leukemia
  TGI: > 100 µM
SR leukemia
  TGI: 74.4 µM
SK-MEL-5 melanoma
  TGI: > 100 µM
HOP-92 NSCLC
  TGI: > 100 µM
HCT-116 colon
  TGI: > 100 µM
NCI-H522 lung
  TGI: > 100 µM
HCC-2998 colon
  TGI: > 100 µM
OVCAR-5 ovarian
  TGI: > 100 µM
EKVX NSCLC
  TGI: > 100 µM
M19-MEL melanoma
  TGI: > 100 µM
SK-MEL-28 melanoma
  TGI: > 100 µM
U251 CNS
  TGI: > 100 µM
SK-MEL-2 melanoma
  TGI: > 100 µM
M14 melanoma
  TGI: > 100 µM
NCI-H460 lung
  TGI: > 100 µM
TK-10 renal
  TGI: > 100 µM
KM12 colon
  TGI: > 100 µM
KM20L2 colon
  TGI: > 100 µM
ACHN renal
  TGI: > 100 µM
SNB-75 CNS
  TGI: > 100 µM
DMS 273 small cell lung
  TGI: > 100 µM
SF-539 CNS
  TGI: > 100 µM
SN12C renal
  TGI: > 100 µM
UACC-62 melanoma
  TGI: > 100 µM
786-0 renal
  TGI: > 100 µM
LXFL 529 NSCLC
  TGI: > 100 µM
SK-OV-3 ovarian
  TGI: > 100 µM
DLD-1 colon
  TGI: > 100 µM
SF-295 CNS
  TGI: > 100 µM
CAKI-1 renal
  TGI: > 100 µM
CCRF-CEM leukemia
  TGI: > 100 µM
SW-620 colon
  TGI: 35.8 µM
UO-31 renal
  TGI: > 100 µM
HL-60(TB) leukemia
  TGI: > 100 µM
OVCAR-8 ovarian
  TGI: > 100 µM
HCT-15 colon
  TGI: > 100 µM
OVCAR-4 ovarian
  TGI: > 100 µM
IGROV1 ovarian
  TGI: > 100 µM
SF-268 CNS
  TGI: > 100 µM
SNB-78 CNS
  TGI: > 100 µM
HT29 colon
  TGI: > 100 µM
XF 498 CNS
  TGI: > 100 µM
COLO 205 colon
  TGI: > 100 µM
A549 NSCLC
  TGI: > 100 µM
HOP-62 NSCLC
  TGI: > 100 µM
LOX IMVI melanoma
  TGI: > 100 µM
NCI-H23 lung
  TGI: > 100 µM
NCI-H226 lung
  TGI: > 100 µM

## NCCSCC(N)C(=O)O (stereo unspecified)
DMS 114 small cell lung
  TGI: > 497 µM
SNB-19 CNS
  TGI: > 497 µM
RPMI-8226 leukemia
  GI50: > 497 µM
  TGI: > 497 µM
MOLT-4 leukemia
  TGI: > 497 µM
A498 renal
  TGI: > 497 µM
SR leukemia
  TGI: > 497 µM
SK-MEL-5 melanoma
  GI50: > 497 µM
  TGI: > 497 µM
HOP-92 NSCLC
  TGI: > 497 µM
HCT-116 colon
  GI50: > 497 µM
  TGI: > 497 µM
NCI-H522 lung
  GI50: > 497 µM
  TGI: > 497 µM
HCC-2998 colon
  TGI: > 497 µM
OVCAR-5 ovarian
  TGI: > 497 µM
EKVX NSCLC
  TGI: > 497 µM
UACC-257 melanoma
  TGI: > 497 µM
M19-MEL melanoma
  TGI: > 497 µM
SK-MEL-28 melanoma
  TGI: > 497 µM
U251 CNS
  TGI: > 497 µM
SK-MEL-2 melanoma
  TGI: > 497 µM
M14 melanoma
  TGI: > 497 µM
NCI-H460 lung
  GI50: > 497 µM
  TGI: > 497 µM
TK-10 renal
  TGI: > 497 µM
KM12 colon
  GI50: > 497 µM
  TGI: > 497 µM
KM20L2 colon
  TGI: > 497 µM
ACHN renal
  GI50: > 497 µM
  TGI: > 497 µM
SNB-75 CNS
  GI50: 470 µM
  TGI: > 497 µM
DMS 273 small cell lung
  TGI: > 497 µM
SF-539 CNS
  TGI: > 497 µM
SN12C renal
  TGI: > 497 µM
UACC-62 melanoma
  TGI: > 497 µM
LXFL 529 NSCLC
  TGI: > 497 µM
SK-OV-3 ovarian
  TGI: > 497 µM
DLD-1 colon
  TGI: > 497 µM
SF-295 CNS
  TGI: > 497 µM
OVCAR-3 ovarian
  GI50: > 497 µM
  TGI: > 497 µM
CCRF-CEM leukemia
  GI50: > 497 µM
  TGI: > 497 µM
SW-620 colon
  GI50: > 497 µM
  TGI: > 497 µM
RXF 393 renal
  TGI: > 497 µM
HL-60(TB) leukemia
  TGI: > 497 µM
OVCAR-8 ovarian
  TGI: > 497 µM
HCT-15 colon
  GI50: > 497 µM
  TGI: > 497 µM
OVCAR-4 ovarian
  TGI: > 497 µM
IGROV1 ovarian
  GI50: > 497 µM
  TGI: > 497 µM
SF-268 CNS
  TGI: > 497 µM
SNB-78 CNS
  TGI: > 497 µM
HT29 colon
  GI50: > 497 µM
  TGI: > 497 µM
XF 498 CNS
  TGI: > 497 µM
COLO 205 colon
  GI50: > 497 µM
  TGI: > 497 µM
A549 NSCLC
  GI50: > 497 µM
  TGI: > 497 µM
HOP-62 NSCLC
  TGI: > 497 µM
LOX IMVI melanoma
  TGI: > 497 µM
NCI-H23 lung
  TGI: > 497 µM
MALME-3M melanoma
  GI50: > 497 µM
  TGI: > 497 µM
NCI-H226 lung
  TGI: > 497 µM
